Results reported in US7166616B2, “Substituted alkanoic acids” (Aventis Pharma Limited, priority 2000, dated 2007).

Row | Structure (SMILES) | melting point
1 | COc1cc(CC(=O)Nc2ccc(C3(CC(=O)O)CCCC3)cc2)ccc1NC(=O)Nc1ccccc1C [Example 2, [1-{4-[2-[3-Methoxy-4-[3-o-tolyl-ureido]-phenyl]-acetylamino]-phenyl}-cyclopentyl]-acetic acid] | 223 to 226 °C
2 | Cc1ccccc1Nc1nc2ccc(CC(=O)Nc3ccc(C4(CC(=O)O)CCCC4)cc3)cc2o1 [Example 1, (1-{4-[2-(2-o-Tolylamino-benzoxazol-6-yl)-acetylamino]-phenyl}-cyclopentyl)-acetic acid] | 123 to 126 °C
